In PubChem BioAssay AID248 (DTP/NCI, 2004):
“And” between values parts separate entries of the source, which are not always exact repeats. Equal entries are not always repeated. Inconclusive results and toxic doses are left out. Cut-off read from the data, not from the text of the source: active = T/C of 150% or more; inactive = T/C below 125%.

System: L1210 leukemia ip in BDF1 mice, survival T/C
Assay: NCI In Vivo Anticancer Drug Screen. Data for tumor model L1210 Leukemia (intraperitoneal) in B6D2F1 (BDF1) mice
Conditions: endpoint: mean survival time, higher = longer survival
Method in brief: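 Value reflects the ratio of survival in compound-treated mice to survival in vehicle-treated controls, with both groups carrying the same transplanted tumor.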

[1] = dose: 100.0 mg/kg/injection, schedule: Q01DX009 (ip), vehicle: saline
[2] = dose: 100.0 mg/kg/injection, schedule: Q04DX003 (ip), vehicle: Klucel (hydroxypropylcellulose) (HPC)
[3] = dose: 200.0 mg/kg/injection, schedule: Q01DX009 (ip), vehicle: saline
[4] = dose: 200.0 mg/kg/injection, schedule: Q04DX003 (ip), vehicle: Klucel (hydroxypropylcellulose) (HPC)
[5] = dose: 400.0 mg/kg/injection, schedule: Q04DX003 (ip), vehicle: Klucel (hydroxypropylcellulose) (HPC)
[6] = dose: 100.0 mg/kg/injection, schedule: Q01DX001 (ip), vehicle: saline
[7] = dose: 200.0 mg/kg/injection, schedule: Q01DX001 (ip), vehicle: saline
[8] = dose: 400.0 mg/kg/injection, schedule: Q01DX001 (ip), vehicle: saline
[9] = dose: 100.0 mg/kg/injection, schedule: Q04DX003 (ip), vehicle: saline with Tween-80
[10] = dose: 200.0 mg/kg/injection, schedule: Q04DX003 (ip), vehicle: saline with Tween-80
[11] = dose: 400.0 mg/kg/injection, schedule: Q04DX003 (ip), vehicle: saline with Tween-80
[12] = dose: 100.0 mg/kg/injection, schedule: Q01DX001 (ip), vehicle: carboxymethylcellulose (CMC)
[13] = dose: 200.0 mg/kg/injection, schedule: Q01DX001 (ip), vehicle: carboxymethylcellulose (CMC)
[14] = dose: 400.0 mg/kg/injection, schedule: Q01DX001 (ip), vehicle: carboxymethylcellulose (CMC)
[15] = dose: 100.0 mg/kg/injection, schedule: Q01DX009 (ip), vehicle: Klucel (hydroxypropylcellulose) (HPC)
[16] = dose: 200.0 mg/kg/injection, schedule: Q01DX009 (ip), vehicle: Klucel (hydroxypropylcellulose) (HPC)
[17] = dose: 400.0 mg/kg/injection, schedule: Q01DX009 (ip), vehicle: Klucel (hydroxypropylcellulose) (HPC)
[18] = dose: 200.0 mg/kg/injection, schedule: Q01DX001 (ip), vehicle: other
[19] = dose: 400.0 mg/kg/injection, schedule: Q01DX001 (ip), vehicle: other
[20] = dose: 50.0 mg/kg/injection, schedule: Q01DX009 (ip), vehicle: saline
[21] = dose: 400.0 mg/kg/injection, schedule: Q01DX009 (ip), vehicle: saline
[22] = dose: 100.0 mg/kg/injection, schedule: Q01DX001 (ip), vehicle: saline with Tween-80
[23] = dose: 200.0 mg/kg/injection, schedule: Q01DX001 (ip), vehicle: saline with Tween-80
[24] = dose: 400.0 mg/kg/injection, schedule: Q01DX001 (ip), vehicle: saline with Tween-80

Measured: T/C

O=C1COC(=O)CO1
inactive: dose: 50.0 mg/kg/injection, schedule: Q04DX003 (ip), vehicle: Klucel (hydroxypropylcellulose) (HPC) 104 % of control | [1] 86 % of control | [2] 100 % of control | [3] 86 % of control | [4] 96 % of control

CC1=CC(C(=O)O)P(C)(=O)C1 (centres undefined)
inactive: dose: 100.0 mg/kg/injection, schedule: Q04DX002 (ip), vehicle: saline with Tween-80 92 % of control | dose: 400.0 mg/kg/injection, schedule: Q04DX002 (ip), vehicle: saline with Tween-80 88 % of control

c1ccc(-c2cc(-c3ccccc3)on2)cc1
inactive: [2] 100 % of control | [4] 98 % of control | [5] 102 % of control

CCCCNC(=O)n1ncc2ccc([N+](=O)[O-])cc21
inactive: [6] 105 % of control | [7] 105 % of control | [8] 102 % of control

S=P1(c2ccccc2)Nc2cc3ccccc3cc2N1
inactive: [9] 97 % of control | [10] 100 % of control | [11] 96 % of control

COC1OCC(OCc2ccccc2)C(OCc2ccccc2)C1OCc1ccccc1 (centres undefined)
inactive: [12] 118 % of control | [13] 98 % of control | [14] 96 % of control

Cc1cc(C)c(C(=O)C=O)c(C)c1
inactive: dose: 50.0 mg/kg/injection, schedule: Q01DX009 (ip), vehicle: Klucel (hydroxypropylcellulose) (HPC) 101 % of control | [15] 100 % of control | [2] 104 % of control | [16] 95 % of control | [4] 107 % of control

Nc1cncc(Br)c1NCCc1ccccc1
inactive: [12] 103 % of control | [13] 97 % of control | [14] 101 % of control

CCCCC/C=N\NC(N)=S
inactive: [12] 96 % of control

Nc1cccc(/C=C/c2ccncc2)c1
inactive: [15] 97 % of control | [16] 94 % of control | [17] 95 % of control

C/C=C\C(O)(C(=O)OC)c1ccccc1 (centres undefined)
inactive: dose: 100.0 mg/kg/injection, schedule: Q01DX001 (ip), vehicle: other 105 % of control | [6] 97 % of control | [18] 107 % of control | [7] 92 % of control | [19] 107 % of control | [8] 92 % of control

COc1ccc(/C=C/C(=N\O)c2ccc(OC)c(OC)c2)cc1OC
inactive: dose: 25.0 mg/kg/injection, schedule: Q01DX009 (ip), vehicle: saline 86 % of control | [20] 98 % of control | [1] 98 % of control | [3] 100 % of control | [21] 98 % of control

CCOC(=O)c1ccc(NCc2nnc3nc(N)nc(SCc4ccccc4)c3n2)cc1
inactive: [22] 96 % of control | [23] 98 % of control | [24] 92 % of control

CCOC(=O)C1CC(C(=O)OCC)C(=O)C1=O (centres undefined)
inactive: [9] 100 % of control | [10] 99 % of control | [11] 86 % of control

CCCCOc1ccc(NC(=O)N(C)C)cn1
inactive: [9] 94 % of control | [10] 96 % of control | [11] 87 % of control

Nc1ncnc2nc(-c3ccc(C(=O)c4cccc(NC(=O)Nc5ccc(S(=O)(=O)F)cc5)c4)cc3)[nH]c12
inactive: dose: 37.5 mg/kg/injection, schedule: Q01DX001 (ip), vehicle: saline 95 % of control | dose: 75.0 mg/kg/injection, schedule: Q01DX001 (ip), vehicle: saline 92 % of control | dose: 150.0 mg/kg/injection, schedule: Q01DX001 (ip), vehicle: saline 90 % of control

C=CCCCCCCCC/C=N\NC(=O)c1ccc[n+](C)c1
inactive: [20] 106 % of control | [1] 100 % of control

NC(=O)CC(N)C(=O)O (centres undefined)
inactive: [6] 96 % of control | dose: 100.0 mg/kg/injection, schedule: Q04DX003 (ip), vehicle: saline 98 % of control | [18] 107 % of control | [7] 97 % of control and 104 % of control | dose: 200.0 mg/kg/injection, schedule: Q01DX009 (ip), vehicle: other 102 % of control | dose: 200.0 mg/kg/injection, schedule: Q01DX009 (ip), vehicle: saline with Tween-80 98 % of control | [3] 97 % of control | dose: 200.0 mg/kg/injection, schedule: Q04DX003 (ip), vehicle: other 102 % of control | dose: 200.0 mg/kg/injection, schedule: Q04DX003 (ip), vehicle: saline 106 % of control and 108 % of control | [19] 107 % of control | [8] 98 % of control | dose: 400.0 mg/kg/injection, schedule: Q01DX009 (ip), vehicle: other 94 % of control | dose: 400.0 mg/kg/injection, schedule: Q01DX009 (ip), vehicle: saline with Tween-80 96 % of control | [21] 103 % of control | dose: 400.0 mg/kg/injection, schedule: Q04DX003 (ip), vehicle: other 96 % of control | dose: 400.0 mg/kg/injection, schedule: Q04DX003 (ip), vehicle: saline 106 % of control and 102 % of control | dose: 800.0 mg/kg/injection, schedule: Q01DX001 (ip), vehicle: other 105 % of control | dose: 800.0 mg/kg/injection, schedule: Q01DX001 (ip), vehicle: saline 106 % of control | dose: 800.0 mg/kg/injection, schedule: Q01DX009 (ip), vehicle: other 100 % of control | dose: 800.0 mg/kg/injection, schedule: Q01DX009 (ip), vehicle: saline with Tween-80 101 % of control | dose: 800.0 mg/kg/injection, schedule: Q01DX009 (ip), vehicle: saline 100 % of control | dose: 800.0 mg/kg/injection, schedule: Q04DX003 (ip), vehicle: other 103 % of control | dose: 800.0 mg/kg/injection, schedule: Q04DX003 (ip), vehicle: saline 101 % of control | dose: 1600.0 mg/kg/injection, schedule: Q01DX001 (ip), vehicle: other 112 % of control | dose: 1600.0 mg/kg/injection, schedule: Q01DX001 (ip), vehicle: saline 101 % of control | dose: 1600.0 mg/kg/injection, schedule: Q01DX009 (ip), vehicle: other 103 % of control | dose: 1600.0 mg/kg/injection, schedule: Q01DX009 (ip), vehicle: saline with Tween-80 98 % of control | dose: 1600.0 mg/kg/injection, schedule: Q01DX009 (ip), vehicle: saline 99 % of control | dose: 1600.0 mg/kg/injection, schedule: Q04DX003 (ip), vehicle: other 96 % of control | dose: 1600.0 mg/kg/injection, schedule: Q04DX003 (ip), vehicle: saline 100 % of control

O=C(COc1ccc(Cl)cc1)Nc1cc(Cl)ccc1Cl
inactive: dose: 100.0 mg/kg/injection, schedule: Q01DX001 (ip), vehicle: Klucel (hydroxypropylcellulose) (HPC) 113 % of control | [2] 88 % of control | dose: 200.0 mg/kg/injection, schedule: Q01DX001 (ip), vehicle: Klucel (hydroxypropylcellulose) (HPC) 95 % of control | [4] 88 % of control | dose: 400.0 mg/kg/injection, schedule: Q01DX001 (ip), vehicle: Klucel (hydroxypropylcellulose) (HPC) 97 % of control | [5] 90 % of control

CCN(CCNc1cc(C)nc(/N=C(\N)Nc2ccc(Cl)c(Cl)c2)n1)CC(C)(C)O
inactive: dose: 75.0 mg/kg/injection, schedule: Q01DX001 (ip), vehicle: other 93 % of control | dose: 150.0 mg/kg/injection, schedule: Q01DX001 (ip), vehicle: other 95 % of control | dose: 300.0 mg/kg/injection, schedule: Q01DX001 (ip), vehicle: other 104 % of control

CC1(C)N=C(N)N=C(N)N1c1ccc(CCc2ccc(Cl)cc2S(=O)(=O)F)c(Cl)c1
inactive: [22] 91 % of control | [23] 94 % of control | [24] 97 % of control

O=[N+]([O-])c1cc2c3ccccc3c(F)cc2c2ccccc12
inactive: [15] 98 % of control | [2] 96 % of control | [16] 98 % of control | [4] 91 % of control | [17] 98 % of control | [5] 101 % of control
